{
  "source": "ChEMBL document CHEMBL4834430",
  "about": "“Design and Structure-Activity Relationships of Isothiocyanates as Potent and Selective N-Acylethanolamine-Hydrolyzing Acid Amidase Inhibitors” (J Med Chem, 2021)",
  "key": {"[1]": {"assay": "Drug concentration in plasma of CD-1 mouse at 2 mg/kg, iv administered as single cassette dose measured after 15 mins", "assay_type": "ADME, organism-based"}, "[2]": {"molecular_target": "Voltage-gated inwardly rectifying potassium channel KCNH2 (Homo sapiens, UniProt Q12809)", "sequence (Q12809 whole entry)": "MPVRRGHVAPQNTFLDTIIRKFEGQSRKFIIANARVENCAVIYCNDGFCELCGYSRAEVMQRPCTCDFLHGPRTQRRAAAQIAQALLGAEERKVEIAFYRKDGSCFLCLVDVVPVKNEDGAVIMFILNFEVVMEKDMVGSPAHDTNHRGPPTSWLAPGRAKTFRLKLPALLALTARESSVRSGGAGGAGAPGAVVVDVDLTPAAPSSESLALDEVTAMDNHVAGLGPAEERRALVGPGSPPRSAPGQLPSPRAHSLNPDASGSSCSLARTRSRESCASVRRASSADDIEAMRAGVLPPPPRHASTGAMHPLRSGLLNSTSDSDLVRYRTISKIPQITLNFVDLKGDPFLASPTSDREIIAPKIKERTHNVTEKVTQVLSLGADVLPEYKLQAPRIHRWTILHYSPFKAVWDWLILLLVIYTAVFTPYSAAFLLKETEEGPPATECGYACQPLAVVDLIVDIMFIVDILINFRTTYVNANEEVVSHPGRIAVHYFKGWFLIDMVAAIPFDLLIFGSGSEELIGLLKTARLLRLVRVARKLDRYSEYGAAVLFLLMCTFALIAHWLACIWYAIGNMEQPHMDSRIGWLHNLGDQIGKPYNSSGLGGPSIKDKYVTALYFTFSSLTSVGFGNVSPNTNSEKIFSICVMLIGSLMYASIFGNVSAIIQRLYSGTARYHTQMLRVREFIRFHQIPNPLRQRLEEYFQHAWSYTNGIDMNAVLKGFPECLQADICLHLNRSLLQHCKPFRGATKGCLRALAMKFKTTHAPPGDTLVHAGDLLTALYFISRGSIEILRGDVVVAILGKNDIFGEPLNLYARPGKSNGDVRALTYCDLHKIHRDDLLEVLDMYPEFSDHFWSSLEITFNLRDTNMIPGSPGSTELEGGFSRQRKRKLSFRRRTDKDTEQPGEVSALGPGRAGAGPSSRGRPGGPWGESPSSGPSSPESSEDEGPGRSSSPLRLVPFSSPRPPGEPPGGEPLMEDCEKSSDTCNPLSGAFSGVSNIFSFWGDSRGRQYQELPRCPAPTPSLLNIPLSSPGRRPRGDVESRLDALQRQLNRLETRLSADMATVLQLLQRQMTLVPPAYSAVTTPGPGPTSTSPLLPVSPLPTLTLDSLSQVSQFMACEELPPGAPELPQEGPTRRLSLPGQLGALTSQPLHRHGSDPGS", "assay": "Inhibition of human ERG"}, "[3]": {"assay": "Oral bioavailability in CD-1 mouse plasma at 8 mg/kg measured up to 8 hrs", "assay_type": "ADME, organism-based"}, "[4]": {"assay": "Mutagenecity in Salmonella typhimurium TA100 in absence of S9 fraction at 5 to 100 uM by Ames test", "assay_type": "toxicity", "conditions": "salmonella enterica subsp. enterica serovar typhimurium, s9, 100 µM; dose 5-100 µM"}, "Cytochrome P450 2A6": {"molecular_target": "T1, Cytochrome P450 2A6 (Homo sapiens, UniProt P11509)", "T1 sequence (P11509 whole entry)": "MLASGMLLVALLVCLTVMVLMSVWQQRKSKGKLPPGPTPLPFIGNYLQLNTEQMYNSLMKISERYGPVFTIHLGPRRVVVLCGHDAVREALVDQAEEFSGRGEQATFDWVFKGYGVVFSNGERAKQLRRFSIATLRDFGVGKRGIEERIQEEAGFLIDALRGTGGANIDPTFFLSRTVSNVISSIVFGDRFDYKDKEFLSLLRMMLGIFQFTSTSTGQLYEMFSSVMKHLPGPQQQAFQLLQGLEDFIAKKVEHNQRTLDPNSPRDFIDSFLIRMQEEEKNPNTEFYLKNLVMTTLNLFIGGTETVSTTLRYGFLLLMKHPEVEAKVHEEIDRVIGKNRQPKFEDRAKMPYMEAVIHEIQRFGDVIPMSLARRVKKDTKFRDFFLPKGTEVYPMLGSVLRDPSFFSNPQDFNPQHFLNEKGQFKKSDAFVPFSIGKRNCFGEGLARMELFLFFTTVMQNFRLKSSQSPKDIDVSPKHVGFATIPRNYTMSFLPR", "assay": "Inhibition of CYP2A6 (unknown origin) at 10 uM", "assay_type": "ADME"}, "Cytochrome P450 2C9": {"molecular_target": "Cytochrome P450 2C9 (Homo sapiens, UniProt P11712)", "sequence (P11712 whole entry)": "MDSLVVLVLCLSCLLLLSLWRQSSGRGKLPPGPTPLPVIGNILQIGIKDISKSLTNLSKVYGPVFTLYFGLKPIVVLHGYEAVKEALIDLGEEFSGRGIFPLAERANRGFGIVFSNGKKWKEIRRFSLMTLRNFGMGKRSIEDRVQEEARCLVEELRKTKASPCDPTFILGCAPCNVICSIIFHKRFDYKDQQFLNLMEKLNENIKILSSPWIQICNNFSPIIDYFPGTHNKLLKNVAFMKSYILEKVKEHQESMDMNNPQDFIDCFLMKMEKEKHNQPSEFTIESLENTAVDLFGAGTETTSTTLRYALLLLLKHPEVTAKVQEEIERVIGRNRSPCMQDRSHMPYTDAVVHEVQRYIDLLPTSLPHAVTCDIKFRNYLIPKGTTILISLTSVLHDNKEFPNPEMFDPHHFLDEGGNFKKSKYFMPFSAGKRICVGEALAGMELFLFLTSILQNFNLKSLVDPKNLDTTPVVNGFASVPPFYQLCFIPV", "assay": "Inhibition of CYP2C9 (unknown origin) at 10 uM", "assay_type": "ADME"}, "[5]": {"assay": "Ratio of drug concentration in brain to plasma in CD-1 mouse at 8 mg/kg, po", "assay_type": "ADME, organism-based", "conditions": "read-out: BPR"}, "[6]": {"assay": "Volume of distribution in CD-1 mouse plasma at 2 mg/kg, iv measured up to 8 hrs", "assay_type": "ADME, organism-based"}, "[7]": {"molecular_target": "Sodium-dependent dopamine transporter (Homo sapiens) (UniProt Q01959)", "sequence (Q01959 whole entry)": "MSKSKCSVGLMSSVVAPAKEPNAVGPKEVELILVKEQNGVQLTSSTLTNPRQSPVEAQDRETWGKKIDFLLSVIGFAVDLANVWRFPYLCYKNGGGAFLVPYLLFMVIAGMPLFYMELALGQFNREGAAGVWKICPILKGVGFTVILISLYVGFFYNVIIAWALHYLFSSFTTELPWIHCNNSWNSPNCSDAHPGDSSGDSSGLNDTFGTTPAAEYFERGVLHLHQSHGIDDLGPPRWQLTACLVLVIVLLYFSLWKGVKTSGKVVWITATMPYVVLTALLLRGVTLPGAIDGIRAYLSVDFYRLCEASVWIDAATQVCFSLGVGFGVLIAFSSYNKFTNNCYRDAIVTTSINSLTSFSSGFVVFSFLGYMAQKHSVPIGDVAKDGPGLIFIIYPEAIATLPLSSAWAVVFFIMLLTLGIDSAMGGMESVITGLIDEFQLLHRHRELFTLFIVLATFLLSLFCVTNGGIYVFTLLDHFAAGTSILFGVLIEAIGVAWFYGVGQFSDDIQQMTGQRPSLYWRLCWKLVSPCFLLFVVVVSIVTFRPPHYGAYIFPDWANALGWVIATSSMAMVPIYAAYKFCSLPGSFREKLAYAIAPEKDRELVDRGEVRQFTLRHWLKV", "assay": "Inhibition of DAT (unknown origin) at 10 uM"}, "[8]": {"molecular_target": "Sodium-dependent noradrenaline transporter (Homo sapiens) (UniProt P23975)", "sequence (P23975 whole entry)": "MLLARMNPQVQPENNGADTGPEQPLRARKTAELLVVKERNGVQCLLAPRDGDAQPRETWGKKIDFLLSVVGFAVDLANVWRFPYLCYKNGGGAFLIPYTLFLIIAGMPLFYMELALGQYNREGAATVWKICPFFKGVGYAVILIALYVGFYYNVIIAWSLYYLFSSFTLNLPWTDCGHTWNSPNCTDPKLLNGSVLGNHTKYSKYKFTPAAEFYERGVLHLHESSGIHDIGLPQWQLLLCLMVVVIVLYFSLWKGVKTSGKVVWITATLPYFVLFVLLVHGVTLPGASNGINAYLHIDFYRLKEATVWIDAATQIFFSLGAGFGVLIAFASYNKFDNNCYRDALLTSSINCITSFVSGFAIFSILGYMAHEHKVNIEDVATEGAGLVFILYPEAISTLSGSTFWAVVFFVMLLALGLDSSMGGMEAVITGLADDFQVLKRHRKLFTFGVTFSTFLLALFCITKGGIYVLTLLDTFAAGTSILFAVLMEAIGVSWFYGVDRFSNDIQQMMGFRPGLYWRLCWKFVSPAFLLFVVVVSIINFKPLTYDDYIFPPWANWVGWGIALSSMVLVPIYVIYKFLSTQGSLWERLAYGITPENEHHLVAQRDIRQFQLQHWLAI", "assay": "Inhibition of NET (unknown origin) at 10 uM"}, "[9]": {"assay": "Drug concentration in plasma of CD-1 mouse at 8 mg/kg, po administered as single cassette dose measured after 30 mins", "assay_type": "ADME, organism-based"}, "[10]": {"assay": "Half life in human liver microsomes at 1 uM in presence of NADPH by LC-MS/MS analysis", "assay_type": "ADME, Microsome"}, "[11]": {"assay": "Half life in rat liver microsomes at 1 uM in presence of NADPH by LC-MS/MS analysis", "assay_type": "ADME, Microsome"}, "[12]": {"molecular_target": "Sodium-dependent serotonin transporter (Homo sapiens) (UniProt P31645)", "sequence (P31645 whole entry, looked up)": "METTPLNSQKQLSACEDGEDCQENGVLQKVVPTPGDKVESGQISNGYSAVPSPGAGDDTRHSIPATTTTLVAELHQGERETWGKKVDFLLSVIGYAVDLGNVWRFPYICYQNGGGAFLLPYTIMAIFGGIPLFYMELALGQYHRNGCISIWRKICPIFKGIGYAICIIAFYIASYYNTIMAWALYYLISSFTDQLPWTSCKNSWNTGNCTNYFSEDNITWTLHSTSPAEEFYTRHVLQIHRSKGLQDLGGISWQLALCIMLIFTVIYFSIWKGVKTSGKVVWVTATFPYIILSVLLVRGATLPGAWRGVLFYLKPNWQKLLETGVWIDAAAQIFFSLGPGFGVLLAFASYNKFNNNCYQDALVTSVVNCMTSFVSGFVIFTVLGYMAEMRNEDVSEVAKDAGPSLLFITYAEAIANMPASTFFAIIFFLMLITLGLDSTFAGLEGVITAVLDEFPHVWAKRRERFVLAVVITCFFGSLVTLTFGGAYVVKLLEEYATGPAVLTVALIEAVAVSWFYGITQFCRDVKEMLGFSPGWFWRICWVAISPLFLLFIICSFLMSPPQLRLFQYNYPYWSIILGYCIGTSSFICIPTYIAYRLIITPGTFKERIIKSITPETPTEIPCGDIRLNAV", "assay": "Inhibition of SERT (unknown origin) at 10 uM"}, "[13]": {"assay": "Half life in mouse liver microsomes at 1 uM in presence of NADPH by LC-MS/MS analysis", "assay_type": "ADME, Microsome"}, "[14]": {"assay": "Clearance in CD-1 mouse plasma at 8 mg/kg, po measured up to 8 hrs", "assay_type": "ADME, organism-based"}, "[15]": {"molecular_target": "T2, N-acylethanolamine-hydrolyzing acid amidase (Homo sapiens, UniProt Q02083)", "T2 sequence (Q02083 whole entry)": "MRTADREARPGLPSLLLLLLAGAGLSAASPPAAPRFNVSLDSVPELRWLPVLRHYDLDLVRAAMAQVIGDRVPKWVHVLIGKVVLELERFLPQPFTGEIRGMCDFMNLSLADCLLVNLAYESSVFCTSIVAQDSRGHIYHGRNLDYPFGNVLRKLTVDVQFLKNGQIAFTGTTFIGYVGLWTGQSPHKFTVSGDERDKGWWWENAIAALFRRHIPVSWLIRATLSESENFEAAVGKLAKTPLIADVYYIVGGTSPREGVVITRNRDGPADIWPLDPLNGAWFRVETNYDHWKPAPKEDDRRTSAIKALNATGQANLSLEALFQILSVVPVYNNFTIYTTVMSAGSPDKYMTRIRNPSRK", "assay": "Inhibition of human NAAA using N-(4-methyl coumarin)-palmitamide as fluorogenic substrate preincubated for 90 mins followed by substrate addition by fluorescence assay"}, "[16]": {"assay": "AUC in CD-1 mouse brain at 8 mg/kg, po measured up to 6 hrs", "assay_type": "ADME, organism-based", "set-up": "route oral, dose 8 mg/kg, time <=6"}, "[17]": {"assay": "Mutagenecity in Salmonella typhimurium TA1537 in presence of S9 fraction at 5 to 100 uM by Ames test", "assay_type": "toxicity, subcellular", "conditions": "salmonella enterica subsp. enterica serovar typhimurium, s9, 100 µM; dose 5-100 µM"}, "[18]": {"assay": "MRT in CD-1 mouse plasma at 2 mg/kg, iv measured up to 8 hrs", "assay_type": "ADME, organism-based"}, "[19]": {"molecular_target": "Cannabinoid receptor 2 (Homo sapiens) (UniProt P34972)", "sequence (P34972 whole entry)": "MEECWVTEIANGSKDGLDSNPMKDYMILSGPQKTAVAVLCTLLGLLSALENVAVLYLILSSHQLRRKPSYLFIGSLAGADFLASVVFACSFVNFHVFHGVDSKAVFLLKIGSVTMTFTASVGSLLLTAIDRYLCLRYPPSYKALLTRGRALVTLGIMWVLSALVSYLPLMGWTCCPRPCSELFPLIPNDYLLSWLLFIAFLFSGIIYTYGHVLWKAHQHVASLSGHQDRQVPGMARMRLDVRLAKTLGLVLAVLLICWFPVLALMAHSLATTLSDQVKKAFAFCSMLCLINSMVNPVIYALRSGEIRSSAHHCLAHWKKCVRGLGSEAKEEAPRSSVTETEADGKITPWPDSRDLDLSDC", "assay": "Displacement of [3H]-CP55940 from human CB2 receptor expressed in HEK293 cell membrane at 10 uM", "assay_type": "cell membranes"}, "[20]": {"assay": "AUC in CD-1 mouse plasma at 8 mg/kg, po measured up to 8 hrs", "assay_type": "ADME, organism-based", "set-up": "route oral, dose 8 mg/kg, time <=8"}, "Cytochrome P450 1A2": {"molecular_target": "T3, Cytochrome P450 1A2 (Homo sapiens, UniProt P05177)", "T3 sequence (P05177 whole entry)": "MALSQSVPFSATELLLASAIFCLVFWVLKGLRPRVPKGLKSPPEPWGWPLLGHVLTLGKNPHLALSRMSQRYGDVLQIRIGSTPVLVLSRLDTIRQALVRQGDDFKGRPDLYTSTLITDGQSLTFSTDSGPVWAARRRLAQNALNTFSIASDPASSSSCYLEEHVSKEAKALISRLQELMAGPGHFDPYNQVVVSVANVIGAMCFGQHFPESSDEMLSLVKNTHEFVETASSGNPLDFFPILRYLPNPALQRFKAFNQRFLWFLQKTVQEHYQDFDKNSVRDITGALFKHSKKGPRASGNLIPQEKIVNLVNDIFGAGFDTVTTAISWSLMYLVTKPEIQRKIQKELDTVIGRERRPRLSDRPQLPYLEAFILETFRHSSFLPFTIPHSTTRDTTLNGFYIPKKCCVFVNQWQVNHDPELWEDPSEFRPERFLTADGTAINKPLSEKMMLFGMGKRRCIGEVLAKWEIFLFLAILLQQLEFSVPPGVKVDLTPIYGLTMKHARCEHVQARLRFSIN", "assay": "Inhibition of CYP1A2 (unknown origin)", "assay_type": "ADME"}, "[21]": {"molecular_target": "Cannabinoid receptor 2 (Mus musculus) (UniProt P47936)", "sequence (P47936 whole entry)": "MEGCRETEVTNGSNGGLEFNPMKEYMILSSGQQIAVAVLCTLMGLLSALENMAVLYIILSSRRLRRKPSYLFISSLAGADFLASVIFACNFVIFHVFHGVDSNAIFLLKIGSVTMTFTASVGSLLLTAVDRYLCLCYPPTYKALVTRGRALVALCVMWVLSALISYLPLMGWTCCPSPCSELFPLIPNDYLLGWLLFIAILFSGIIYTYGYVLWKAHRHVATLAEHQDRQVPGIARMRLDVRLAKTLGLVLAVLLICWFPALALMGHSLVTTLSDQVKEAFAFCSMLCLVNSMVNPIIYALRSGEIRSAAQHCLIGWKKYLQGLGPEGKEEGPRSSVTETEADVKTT", "assay": "Displacement of [3H]-CP55940 from mouse CB2 receptor expressed in HEK293 cell membrane at 10 uM", "assay_type": "cell membranes"}, "[22]": {"assay": "Volume of distribution in CD-1 mouse plasma at 8 mg/kg, po measured up to 8 hrs", "assay_type": "ADME, organism-based", "conditions": "in vivo"}, "[23]": {"assay": "Drug concentration in plasma of CD-1 mouse at 8 mg/kg, po administered as single cassette dose measured after 60 mins", "assay_type": "ADME, organism-based"}, "Cytochrome P450 3A4": {"molecular_target": "Cytochrome P450 3A4 (Homo sapiens, UniProt P08684)", "sequence (P08684 whole entry)": "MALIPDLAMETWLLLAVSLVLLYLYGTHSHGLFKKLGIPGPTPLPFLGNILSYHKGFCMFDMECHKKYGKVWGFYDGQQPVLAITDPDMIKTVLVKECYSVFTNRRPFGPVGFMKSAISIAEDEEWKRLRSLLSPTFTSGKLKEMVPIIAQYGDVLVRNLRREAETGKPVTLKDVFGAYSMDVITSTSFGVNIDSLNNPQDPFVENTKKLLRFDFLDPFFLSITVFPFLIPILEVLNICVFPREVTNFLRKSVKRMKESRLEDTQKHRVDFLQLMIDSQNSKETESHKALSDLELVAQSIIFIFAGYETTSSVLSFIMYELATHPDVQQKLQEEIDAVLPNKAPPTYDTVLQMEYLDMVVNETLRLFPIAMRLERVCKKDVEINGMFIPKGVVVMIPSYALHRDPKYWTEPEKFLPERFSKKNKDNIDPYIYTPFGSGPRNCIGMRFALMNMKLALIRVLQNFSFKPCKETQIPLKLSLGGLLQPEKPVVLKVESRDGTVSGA", "assay": "Inhibition of CYP3A4 (unknown origin)", "assay_type": "ADME"}},
  "note": "Calls of active or inactive are those of the source. No cut-off for these calls is given here.",
  "data": [
    {"smiles": "COc1ccc(-c2ccc(CO[C@H]3C[C@@H](N=C=S)C3)nc2)cc1F", "values": [
      {"measurement": "concentration at 0.25 h", "setting": "[1]", "result": 189, "unit": "ng/mL"},
      {"measurement": "IC50", "setting": "[2]", "result": 19000, "unit": "nM"},
      {"measurement": "bioavailability", "setting": "[3]", "result": 13, "unit": "%"},
      {"measurement": "Activity", "setting": "[4]", "result": "Non-Toxic"},
      {"measurement": "inhibition (INH)", "setting": "Cytochrome P450 2A6", "result": "Not Active"},
      {"measurement": "inhibition (INH)", "setting": "Cytochrome P450 2C9", "result": "Not Active"},
      {"measurement": "Kp", "setting": "[5]", "result": 0.25},
      {"measurement": "Vd", "setting": "[6]", "result": 27, "unit": "L/kg"},
      {"measurement": "inhibition", "setting": "[7]", "result": "inactive"},
      {"measurement": "inhibition", "setting": "[8]", "result": "inactive"},
      {"measurement": "concentration at 0.5 h", "setting": "[9]", "result": 16, "unit": "ng/mL"},
      {"measurement": "half-life at 1 µM", "setting": "[10]", "result": 16.7, "unit": "min"},
      {"measurement": "half-life at 1 µM", "setting": "[11]", "result": 19.2, "unit": "min"},
      {"measurement": "inhibition", "setting": "[12]", "result": "inactive"},
      {"measurement": "half-life at 1 µM", "setting": "[13]", "result": 28.2, "unit": "min"},
      {"measurement": "CL/F", "setting": "[14]", "result": 2760, "unit": "mL/min/kg"},
      {"measurement": "IC50", "setting": "[15]", "result": 20, "unit": "nM"},
      {"measurement": "AUC at 6 h", "setting": "[16]", "result": 10.3, "unit": "ng·h/mL"},
      {"measurement": "Activity", "setting": "[17]", "result": "Non-Toxic"},
      {"measurement": "MRT", "setting": "[18]", "result": 20.3, "unit": "min"},
      {"measurement": "inhibition", "setting": "[19]", "result": "inactive"},
      {"measurement": "AUC at 8 h", "setting": "[20]", "result": 41.3, "unit": "ng·h/mL"},
      {"measurement": "IC50", "setting": "Cytochrome P450 1A2", "result": 1800, "unit": "nM"},
      {"measurement": "inhibition", "setting": "[21]", "result": "inactive"},
      {"measurement": "Vd", "setting": "[22]", "result": 126, "unit": "L/kg"},
      {"measurement": "concentration at 1 h", "setting": "[23]", "result": 54, "unit": "ng/mL"},
      {"measurement": "IC50", "setting": "Cytochrome P450 3A4", "result": 2600, "unit": "nM"}
    ]}
  ]
}
